This note sets out measurements from patent US5409950A, “Cyclic ketal derivatives” (Glaxo Group Limited, priority 1991, dated 1995).

The target of this experiment is T1, squalene synthase (Rattus norvegicus, UniProt Q02769).
T1 construct: incubating rat liver homogenate with various concentrations of the test compound; from tissue; host or cells: rat liver homogenate
T1 sequence (Q02769 1-416): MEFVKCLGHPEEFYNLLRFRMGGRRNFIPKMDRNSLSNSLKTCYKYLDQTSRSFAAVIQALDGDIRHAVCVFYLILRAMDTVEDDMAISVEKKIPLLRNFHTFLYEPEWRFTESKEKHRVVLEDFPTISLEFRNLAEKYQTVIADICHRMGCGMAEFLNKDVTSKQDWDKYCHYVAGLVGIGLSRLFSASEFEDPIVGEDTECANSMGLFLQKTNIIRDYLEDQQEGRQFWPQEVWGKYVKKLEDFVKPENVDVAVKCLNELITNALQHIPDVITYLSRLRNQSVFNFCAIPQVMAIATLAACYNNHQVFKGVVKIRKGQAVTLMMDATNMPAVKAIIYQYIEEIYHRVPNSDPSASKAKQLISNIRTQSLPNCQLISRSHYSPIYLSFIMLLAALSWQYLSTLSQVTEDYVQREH
Kind of experiment: Inhibition of squalene synthase in rat liver homogenate. The format is biochemical. As to conditions: [2-14C] farnesylpyrophosphate as substrate, 30 minute assay, read-out: IC50 (concentration of compound giving 50% inhibition of [14C] squalene production). As to the method:
Acta, Volume 877, 50-60 (1986) and modified to include measurement of cholesterol by high performance liquid chromatography (h.p.l.c.).
[^14 C] Squalene was separated from unreacted substrate on thin layer chromatography plates and determined by liquid scintillation counting. Inhibition of squalene synthase was quantified by incubating rat liver homogenate with various concentrations of the test compound in the presence of [2-^14 C] farnesylpyrophosphate. The concentration of compound giving 50% inhibition of [^14 C] squalene production in a 30 minute assay was taken as the IC50 value.

For `CC[C@H](C)C[C@H](C)/C=C/C(=O)O[C@@H]1[C@@H](O)[C@@]2(CC/C(C)=C/C(C)Cc3ccccc3)O[C@H](C(=O)O)[C@@](O)(C(=O)O)[C@]1(C(=O)O)O2` (some centres unmarked) [Compound A1], the IC50 is below 100 nM.
Next, `C=C(CC[C@]12O[C@H](C(=O)O)[C@@](O)(C(=O)O)[C@](C(=O)O)(O1)[C@H](OC(=O)/C=C/[C@@H](C)C[C@@H](C)CC)[C@H]2O)C(NC(C)=O)C(C)Cc1ccccc1` (some centres unmarked) [Compound B1]: below 100 nM; `C=C(CC[C@]12O[C@H](C(=O)O)[C@@](O)(C(=O)O)[C@](C(=O)O)(O1)[C@H](OC(=O)/C=C/[C@@H](C)C[C@@H](C)CC)[C@H]2O)[C@@H](O)[C@H](C)Cc1ccccc1` [Compound B, [1S-[1α(4R*,5S*),3α,4β,5α,6α(2E,4R*,6R*),7 β9]1-(4-hydroxy-5-methyl-3-methylene-6-phenylhexyl)-4,6,7-trihydroxy-2,8-dioxabicyclo[3.2.1]octane-3,4,5-tricarboxylic acid, 6-(4,6-dimethyl-2-octenoate)]: below 100 nM; `C=C(CC[C@]12O[C@H](C(=O)O)[C@@](O)(C(=O)O)[C@](C(=O)O)(O1)[C@H](OC(=O)/C=C/C(C)(O)CC(C)CC)[C@H]2O)[C@@H](O)[C@H](C)Cc1ccccc1` (some centres unmarked) [Compound C1]: below 100 nM.
As for `C=C(CC[C@]12O[C@H](C(=O)OC)[C@@](O)(C(=O)O)[C@](C(=O)O)(O1)[C@H](OC(=O)/C=C/[C@@H](C)C[C@@H](C)CC)[C@H]2O)[C@@H](O)[C@H](C)Cc1ccccc1` [Compound E, [1S-[1α(4R*,5S*),3α,4β,5α,6α(2E,4R*,6R*),7β]]1-(4-hydroxy-5-methyl-3-methylene-6-phenylhexyl)-4,6,7-trihydroxy-2,8-dioxabicyclo[3.2.1]octane-3,4,5-tricarboxylic acid, 6-(4,6-dimethyl-2-octenoate), 3-methyl ester], the IC50 was below 100 nM.
Then `C=C(CC[C@]12O[C@H](C(=O)O)[C@@](O)(C(=O)O)[C@](C(=O)O)(O1)[C@H](OC(=O)/C=C/C(C)CCCC)[C@H]2O)[C@@H](OC(C)=O)[C@H](C)Cc1ccccc1` (some centres unmarked) [Compound G], with below 100 nM; and `C=C(CC[C@]12O[C@H](C(=O)O)[C@@](O)(C(=O)O)[C@](C(=O)O)(O1)[C@H](OC(=O)/C=C/C(C)=C/C(C)CC)[C@H]2O)[C@@H](OC(C)=O)[C@H](C)Cc1ccccc1` (some centres unmarked) [Compound H], with below 100 nM; and `C=C(CC[C@]12O[C@H](C(=O)O)[C@@](O)(C(=O)O)[C@](C(=O)O)(O1)[C@H](OC(=O)CC(O)C(C)CC(C)CC)[C@H]2O)[C@@H](OC(C)=O)[C@H](C)Cc1ccccc1` (some centres unmarked) [Compound I], with below 100 nM.
`C=C(CC[C@]12O[C@H](C(=O)O)[C@@](O)(C(=O)O)[C@](C(=O)O)(O1)[C@H](OC(=O)/C=C/C(C)(O)CC(C)CC)[C@H]2O)[C@@H](OC(C)=O)[C@H](C)Cc1ccccc1` (some centres unmarked) [Compound K]: the IC50 was below 100 nM.
Next, `C=C(CC[C@]12O[C@H](C(=O)O)[C@@](O)(C(=O)O)[C@](C(=O)O)(O1)[C@H](OC(=O)CC(O)CCC(C)CC)[C@H]2O)[C@@H](OC(C)=O)[C@H](C)Cc1ccccc1` (some centres unmarked) [Compound L]: below 100 nM; `C=C(CC[C@]12O[C@H](C(=O)O)[C@@](O)(C(=O)O)[C@](C(=O)O)(O1)[C@H](OC(=O)CC(O)C(C)CC(C)CC)[C@H]2O)[C@@H](O)[C@H](C)Cc1ccccc1` (some centres unmarked) [Compound M]: below 100 nM.
Then `C=C(CC[C@]12O[C@H](C(=O)O)[C@@](O)(C(=O)O)[C@](C(=O)O)(O1)[C@H](OC(=O)/C=C/[C@@H](C)C[C@@H](C)CC)[C@H]2O)C(O)C(CO)Cc1ccccc1` (some centres unmarked) [Compound N], with below 100 nM.
Next, `C=C(CC[C@@]12C[C@@H](OC(=O)/C=C/[C@@H](C)C[C@@H](C)CC)[C@@](C(=O)O)(O1)[C@](O)(C(=O)O)[C@@H](C(=O)O)O2)[C@@H](OC(C)=O)[C@H](C)Cc1ccccc1` [Compound O, [1S-[1α(4R*,5S*),3α,4β,5α,6α(2E,4R*,6R*)]]1-4-acetyloxy-5-methyl-3-methylene-6-phenylhexyl)-4,6-dihydroxy-2,8-dioxabicyclo[3.2.1]octane-3,4,5-tricarboxylic acid, 6-(4,6-dimethyl-2-octenoate)]: below 100 nM; `CC[C@H](C)C[C@H](C)/C=C/C(=O)O[C@@H]1[C@@H](O)[C@@]2(CC/C(=C\C(C)Cc3ccccc3)CNC(C)=O)O[C@H](C(=O)O)[C@@](O)(C(=O)O)[C@]1(C(=O)O)O2` (some centres unmarked) [Compound T]: below 100 nM; `C=C(CC[C@]12O[C@H](C(=O)O)[C@@](O)(C(=O)O)[C@](C(=O)O)(O1)[C@H](OC(=O)CCC(C)CC(C)CC)[C@H]2O)[C@@H](OC(C)=O)[C@H](C)Cc1ccccc1` (some centres unmarked) [Compound U]: below 100 nM.
Regarding `C=C(CC[C@@]12O[C@H](C(=O)O)[C@@](O)(C(=O)O)[C@@](C(=O)O)(C[C@H]1O)O2)[C@@H](OC(C)=O)[C@H](C)Cc1ccccc1` [Compound V, [1S-[1α(4R*,5S*),3α,4β,5α,7β]]1-(4-acetyloxy-5-methyl-3-methylene-6-phenylhexyl)-4,7-dihydroxy-2,8-dioxabicyclo[3.2.1]octane-3,4,5-tricarboxylic acid], the IC50 is below 100 nM.
Next, `C=C(CC[C@]12O[C@H](C(=O)O)[C@@](O)(C(=O)O)[C@](C(=O)O)(O1)[C@H](OC(=O)CC(O)CCC(C)CC)[C@H]2O)[C@@H](O)[C@H](C)Cc1ccccc1` (some centres unmarked) [Compound W]: below 100 nM.
